Reference: ChEMBL document CHEMBL3507680, “University of Dundee, Gates Library screen for HepG2 cell viability”

Experiment: Human HepG2 cell viability assay in 384 well format
Type: toxicity, cell-based
Design: dose 125 nL, time 70.5 hour; cytotoxicity at 70.5 h: concentration not given beside the values
Conditions: HepG2 cells, read-out: Inhibition

Row | SMILES | cytotoxicity at 70.5 h
1 | Cc1cccc(-c2noc(CNC(C)Cn3cc(C)cn3)n2)c1 (stereo not given) | -0.846%
2 | CCc1nnc2n1CCN(C(=O)c1ccc3c(c1)nnn3C)C2 | -0.825%
3 | Cc1cnn(CC(C)NCc2nc(-c3ccoc3)no2)c1 (stereo not given) | 38.1%
4 | Cc1n[nH]c(C)c1NC(=O)CN1CCCC1Cn1cncn1 (stereo not given) | -0.918%
5 | COc1cccc(CNCCc2cc(F)cc3c2OCOC3)c1OC | 5.71%
6 | CN(C)c1cccc(C2CCCN2Cc2nnnn2C2CC2)c1 (stereo not given) | -1.65%
7 | COc1cc(CNCCc2cc(F)cc3c2OCOC3)cc(OC)c1 | 1.52%
8 | O=C(Nc1cccc(CN2CCOC2=O)c1)N1CCCCCC1 | 35.8%
9 | CCC(=O)N1CCCC1c1ccsc1 (stereo not given) | -5.78%
10 | Cc1nc(C)n(CC2CCCN(CC(=O)Nc3cccnc3)C2)n1 (stereo not given) | -0.663%
11 | O=C(CN1CCCC1Cn1cncn1)NCC1(c2ccccc2)CC1 (stereo not given) | -5.75%
12 | CC(Cn1cccn1)NCc1nc(-c2cccnc2)no1 (stereo not given) | -3.96%
13 | Cc1nc(-c2ccsc2)ccc1C(=O)N(C)CC1CC1 | -7.16%
14 | CCCc1n[nH]c(C2CN(C(=O)CCn3cc(C)cn3)CCO2)n1 (stereo not given) | 4.48%
15 | CS(=O)(=O)c1ccc(C(=O)N2CCCC(n3cncn3)C2)o1 (stereo not given) | 21.1%
16 | CCc1cnc(CN(C)C2CCN(CCCNS(C)(=O)=O)C2)o1 (stereo not given) | -2.35%
17 | CS(=O)(=O)Cc1ccc(C(=O)N2CCCC(n3cncn3)C2)o1 (stereo not given) | 1.66%
18 | COc1ccc(C2CCCN2S(=O)(=O)N(C)C)cc1 (stereo not given) | -6.59%
19 | CCCOc1ccc(Cl)cc1NC(=O)NCCC(=O)N(C)C | 4.12%
20 | CCCOc1cc(C)ccc1NC(=O)NCCNC(C)=O | 3.53%
21 | CCOc1ccccc1NC(=O)N(CCO)Cc1ccsc1 | 2.23%
22 | CC(C)(C(=O)NCC(=O)N1CCCC1)c1ccccc1F | 3.99%
23 | CC(C)c1ncncc1C(=O)NCCN1CCCCCC1 | -0.207%
24 | CC(C)c1nnc2n1CC(CNCc1ccsc1)CC2 (stereo not given) | 2.53%

Row | SMILES | cytotoxicity at 70.5 h
25 | CC(C)N(CCC#N)C(=O)c1cnc(-c2ccc3c(c2)OCO3)s1 | -0.296%
26 | O=C(CCc1ccsc1)NC1CCN(c2cccc(F)c2)CC1 | 4.39%
27 | CCCc1ccc(S(=O)(=O)NC(=O)CCc2cscn2)cc1 | 4.19%
28 | O=C(CCc1ccc(Cl)cc1)NC1CCN(c2cccc(F)c2)CC1 | 10.5%
29 | CC(C)c1ncncc1C(=O)NCCN1CCCCC1C (stereo not given) | -1.51%
30 | Cc1nn(C)c(N2CCOCC2)c1CNCc1cccnc1 | 24.7%
31 | Cc1ccc(-c2n[nH]cc2CNCCn2cccn2)o1 | 2.17%
32 | CCc1sc(C(=O)Nc2cnn(CCN(C)C)c2)cc1C | -17.9%
33 | O=C(c1ccc(N2CCCC2)nn1)N1CCCc2cc(F)c(F)cc21 | -1.17%
34 | O=C(c1ccc(N2CCCC2)nn1)N1CCCc2ccc(F)cc21 | 8.25%
35 | COc1ccc(-c2noc(C3CCS(=O)(=O)C3)n2)cc1OC (stereo not given) | -10.7%
36 | COCC(=O)NC(c1ccc(Cl)cc1)C(F)(F)F (stereo not given) | -12.5%
37 | Cc1cc(CS(=O)(=O)N(C)C(C)c2ccc(F)cc2)on1 (stereo not given) | -7.52%
38 | O=C(CNC(=O)N(Cc1ccoc1)C1CCCCC1)N1CCCC1 | -7.2%
39 | CCc1nc(CNc2ccc(C(=O)NCc3ccco3)cc2C)no1 | -9.99%
40 | Cc1cnc(CNc2ccc(C(=O)NCc3ccco3)cc2C)o1 | 6.63%
41 | CC(NCCCC#N)c1ccc(-c2ccncc2)cc1 (stereo not given) | 14.3%
42 | O=C(NCC1(c2ccc(F)cc2)CCC1)N1CCC2(CCOCC2)C1 | 7.66%
43 | Cc1nnc(CN(Cc2ccccc2Br)C2CC2)o1 | -8.83%
44 | Cc1nnc(CN(Cc2ccccc2C(F)(F)F)C2CC2)o1 | -10.9%
45 | Cc1nnc(CN(Cc2ccccc2Cl)C2CCCC2)o1 | -5.33%
46 | CCc1cnc(CNc2ccc(C(=O)NCc3ccco3)cc2C)o1 | -8.92%
47 | Cc1ccccc1-n1cnc(Cl)c1C(=O)O | -8.21%
48 | O=C(O)c1ccnc(SCc2ccccc2)c1 | 32.7%

Row | SMILES | cytotoxicity at 70.5 h
49 | Cc1ccc(-c2nc(CSCCC(=O)NC(N)=O)co2)cc1 | -11.4%
50 | O=C1CC(N(C(=O)CCc2c[nH]c3ccccc23)C2CC2)C(=O)N1 (stereo not given) | -14.1%
51 | Cc1nnc(C(C)N2CCc3[nH]c4ccc(Cl)cc4c3C2)o1 (stereo not given) | -4.39%
52 | Cc1nnc(C(C)N2CCc3[nH]c4ccccc4c3C2)o1 (stereo not given) | -4.16%
53 | O=C(O)c1c(Cl)ncn1-c1cccc2ccccc12 | -4.51%
54 | O=C(NC1CCN(c2ccccc2Br)C1)c1c[nH]nn1 (stereo not given) | -6.49%
55 | O=C(O)c1cccn1-c1ccc2c(c1)OCCO2 | -9.54%
56 | Clc1cc(Cl)cc(OCCN2CCC(n3cncn3)CC2)c1 | -0.108%
57 | CC(C)N1CCN(C(=O)c2ccccc2NCc2cccnc2)CC1 | -5.19%
58 | Cc1cc(=O)c(C(=O)N2CCN(C)c3ccccc3C2)c[nH]1 | -9.5%
59 | CC(C)(CO)CCCNC(=O)NC1(c2cccc(F)c2)CC1 | -8.07%
60 | CCC1CN(C)c2ccccc2CN1C(=O)c1c[nH]c(=O)cc1C (stereo not given) | -11.3%
61 | O=C(O)c1c(Cl)ncn1-c1ccccc1 | -9.78%
62 | CS(=O)(=O)CCCN(CCc1cccc(F)c1)C1CC1 | 21.4%
63 | Cc1cccc(C)c1OCCCN1CCC(n2cncn2)CC1 | 3.77%
64 | O=C(NC1CCN(c2ccccc2OC(F)F)C1)c1c[nH]nn1 (stereo not given) | -10.2%
65 | CC1(C)CN=C(N2CCN(CC3CCCO3)CC2)S1 (stereo not given) | -7.36%
66 | CCc1nc(CNC(C)(CO)C2CCCCC2)no1 (stereo not given) | 15.6%
67 | COc1ccc(N(Cc2ccco2)C(=O)COC(C)C)cc1F | -7.47%
68 | COc1c(CNC(C)C(=O)NC2CCCC2)c(C(C)C)nn1C (stereo not given) | -6.92%
69 | Clc1ccc(-c2cnc(CNC3CCc4ncnn4C3)o2)cc1 (stereo not given) | -12.9%
70 | CCCN(CC(F)F)c1cc(COC)nc2ncnn12 | -9.58%
71 | COCc1cc(N(Cc2ccsc2)C2CC2)n2ncnc2n1 | -6.87%
72 | Cc1cc(C(=O)Nc2nnn[nH]2)ccc1I | -5.12%

Row | SMILES | cytotoxicity at 70.5 h
73 | CCC(C)(N)c1nc(=O)c(C)c(C)[nH]1 (stereo not given) | -7.88%
74 | CC(NC(=O)N1CCC(CO)CC1)c1csc2ccccc12 (stereo not given) | -1.97%
75 | O=C(CN1CCOc2ccc(Cl)cc21)NCCCn1cccn1 | 9.56%
76 | CN(Cc1nnc(-c2ccco2)o1)Cc1nc2c(s1)CCCC2 | -11.2%
77 | O=C(O)c1csc(S(=O)(=O)N2CCCc3cccc(OC(F)F)c32)c1 | -5.21%
78 | OCC(CO)Nc1ccc2ccc(Cl)c(Cl)c2n1 | 19.4%
79 | Cc1cccc(S(=O)(=O)NCC(C)(C)CC(C)O)c1C#N (stereo not given) | -6.31%
80 | CC(O)CC(C)(C)CNS(=O)(=O)c1cccc(Cl)c1C#N (stereo not given) | -10%
81 | CCN(C(=O)CNC1CCc2ncnn2C1)C1=CCCCC1 (stereo not given) | 4.5%
82 | O=C(NCCCC(=O)N1CCN(CC2CC2)c2ccccc21)C1CC1 | -7.6%
83 | Cc1cc(C)n(-c2ccc(C(=O)N3CCCC3c3cnn(C)c3)cc2)n1 (stereo not given) | -5.54%
84 | C[S+]([O-])c1nncn1CCCc1ccc(Cl)cc1 (stereo not given) | -2.94%
85 | CCCC(=O)N1CCCCC1C(=O)Nc1ccc(-c2nnc[nH]2)cc1 (stereo not given) | -5.35%
86 | CCC(C)C(=O)NCCc1nc(C(F)(F)F)cs1 (stereo not given) | -6.38%
87 | CC(NC(=O)NCCc1nc(C(F)(F)F)cs1)C(=O)N(C)C (stereo not given) | -7.19%
88 | CC(C)C(O)CNC(=O)Nc1cnn(Cc2ccccc2)c1 (stereo not given) | -1.15%
89 | CC(C)CN1C(=O)C2(CCCC2)NC1c1cn(C)c(=O)n(C)c1=O (stereo not given) | 0.777%
90 | Cc1cccc(Sc2nccn(C)c2=O)c1 | -13.8%
91 | Cc1ccc(Sc2nccn(C)c2=O)cc1 | -3.35%
92 | Cn1ccnc(Sc2ccccc2)c1=O | -9.9%
93 | CC(=O)c1ccc(CNC(=O)c2c(C)cc(C)cc2C)nc1C | 3.34%
94 | CC(C)N(C)CC(=O)N(C)Cc1nc(C(F)(F)F)cs1 | 2.33%
95 | CSC1(CNC(=O)CCc2ccc(Cl)s2)CCOCC1 | -5.64%
96 | Cn1cc(C2NC3(CCCC3)C(=O)N2CC2CC2)c(=O)n(C)c1=O (stereo not given) | -5.99%

Row | SMILES | cytotoxicity at 70.5 h
97 | Cc1nc(C)c(CNC(=O)N2CCc3ccccc3C2CO)s1 (stereo not given) | -1.94%
98 | CCC(=O)N1CCC(NC(=O)c2cccc(-n3ccnc3)c2)C1 (stereo not given) | -8.46%
99 | Cc1cc(CNC(=O)N2CCc3ccccc3C2CO)c(C)o1 (stereo not given) | -5.72%
100 | CC(=O)c1ccc(CNC(=O)c2cc(C)nn2C)nc1C | 3.42%
101 | Cc1nc(C(=O)N2CCN(C(C)c3ccccc3F)CC2)cs1 (stereo not given) | -1.44%
102 | Cc1ccc(CC(=O)N2CCN(C(C)c3ccccc3F)CC2)cn1 (stereo not given) | -2.9%
103 | O=C(CCc1ccsc1)Nc1cnccc1O | -6.71%
104 | CC(NC(=O)Cn1cccnc1=O)c1ccc(C(F)(F)F)cc1 (stereo not given) | 12%
105 | NC(=O)CCCNC(=O)COc1ccccc1C(F)(F)F | -5.37%
106 | CCC(C#N)NC(=O)c1ccc(Oc2cccnc2)cc1 (stereo not given) | -8.45%
107 | CC1CCCCN1CCNC(=O)NCc1ccc(C#N)cc1F (stereo not given) | -6.05%
108 | CC1CCN(c2nc3c(cnn3-c3ccccc3)c(=O)[nH]2)CC1 | -5.83%
109 | N#Cc1ccc(CNC(=O)NCCNC(=O)C2CCCC2)c(F)c1 | 13.4%
110 | Cc1nc(C2CCCN(C(=O)CN3CCCNC3=O)C2)sc1C (stereo not given) | -8.3%
111 | CNc1nc(CNC(=O)Nc2ccc(OC(C)C)cc2C)cs1 | -2.53%
112 | O=C(O)c1ccc(CCNC(=O)C2(c3ccccc3)CC2)cc1 | 12.5%
113 | N#CCSCCCN1CCN(C(=O)C2CCCC2)CC1 | -5.88%
114 | Cc1[nH]c2ccccc2c1CCNC(=O)N1CCC2(C1)OCCO2 | -17.8%
115 | CCc1nc(C2CCCN2C(=O)CCCOc2cccc(F)c2)no1 (stereo not given) | -18.6%
116 | CC(c1ccccc1F)N1CCN(C(=O)Cc2ccncc2)CC1 (stereo not given) | -11.8%
117 | Cc1nc(C2CCCN2C(=O)CCCOc2ccccc2C)no1 (stereo not given) | -8.51%
118 | CCC(C)(NCC(=O)N(c1ccccc1)C(C)C)c1nc(C)cs1 (stereo not given) | 2.38%
119 | CCc1c(C)[nH]c(C(C)(N)CC)nc1=O (stereo not given) | -10.4%
120 | CCc1c(C)[nH]c(C(C)(C)N)nc1=O | -7.1%
